Experimental data taken from ChEMBL document CHEMBL5143718, “Rational Design of a Theranostic Agent Triggered by Endogenous Nitric Oxide in a Cellular Model of Alzheimer's Disease” (J Med Chem, 2022).
Activity calls are given as the source filed them. The calls are words filed in the database; no cut-off is given here.

Assays:
[1] = system: BV-2; experiment: Cytotoxicity against mouse BV-2 cells assessed as reduction in cell viability at 1 to 10 uM incubated for 24 hrs by CCK8 assay; type: toxicity, cell-based; conditions: bv-2, 24 h, dose 1-10 µM
[2] = system: HT-22; experiment: Cytotoxicity against mouse HT-22 cells assessed as reduction in cell viability at higher concentration incubated for 24 hrs by CCK8 assay; type: toxicity, cell-based; conditions: ht-22, 24 h
[3] = system: HT-22; experiment: Cytotoxicity against mouse HT-22 cells assessed as increase in live/dead cells ratio at 5 uM after 48 hrs by Live/dead staining based fluorescence microscopic analysis; type: toxicity, cell-based; conditions: ht-22, 48 h
[4] = system: HT-22; experiment: Cytotoxicity against mouse HT-22 cells assessed as reduction in cell viability at < 5 uM incubated for 24 hrs by CCK8 assay; type: toxicity, cell-based; conditions: ht-22, 24 h
[5] = system: HT-22; experiment: Cytotoxicity against mouse HT-22 cells assessed as reduction in cell viability at 5 uM after 36 hrs by CCK8 assay; type: toxicity, cell-based; conditions: ht-22, 36 h
[6] = system: HT-22; experiment: Antioxidant activity in mouse HT-22 cells cocultured with BV-2 cells assessed as upregulation of NQO1 mRNA expression at 5 uM after 48 hrs by qRT-PCR analysis; type: functional, cell-based
[7] = Cytotoxicity against mouse HT-22 cells assessed as cell viability at 5 uM after 48 hrs by CCK8 assay; type: toxicity, cell-based; conditions: read-out: Activity
[8] = system: HT-22; experiment: Antioxidant activity in mouse HT-22 cells cocultured with BV-2 cells assessed as reduction in glutamic acid level at 5 uM incubated for 24 hrs; type: functional
[9] = Effective permeability of compound in PBS buffer at pH 7.4 incubated for 18 hrs by PAMPA assay; type: ADME; conditions: read-out: Peff
[10] = system: HT-22; experiment: Cytotoxicity against mouse HT-22 cells assessed as reduction in cell viability at 5 uM after 24 hrs by CCK8 assay; type: toxicity, cell-based; conditions: ht-22, 24 h
[11] = system: HT-22; experiment: Antioxidant activity in mouse HT-22 cells cocultured with BV-2 cells assessed as increase in GSH level at 5 uM incubated for 48 hrs by DCFH-DA staining based microplate reader analysis; type: functional
[12] = system: HT-22; experiment: Antioxidant activity in mouse HT-22 cells cocultured with BV-2 cells assessed as ROS scavenging activity at 5 uM incubated for 48 hrs by DCFH-DA staining based microplate reader analysis; type: functional
[13] = system: HT-22; experiment: Antioxidant activity in mouse HT-22 cells cocultured with BV-2 cells assessed as upregulation of HO-1 mRNA expression at 5 uM after 48 hrs by qRT-PCR analysis; type: functional, cell-based
[14] = system: HT-22; experiment: Cytotoxicity against mouse HT-22 cells cocultured with BV-2 cells assessed as increase in live/dead cells ratio at 5 uM after 48 hrs by Live/dead staining based fluorescence microscopic analysis; type: toxicity, cell-based; conditions: ht-22, 48 h
[15] = Drug uptake in LPS-stimulated mouse BV-2 cells assessed as increase in fluorescence at 10 uM pretreated with LPS and carboxyl-PTIO for 3 hrs followed by compound addition and measured after 3 hrs; type: ADME, cell-based
[16] = Drug uptake in mouse BV-2 cells assessed as increase in fluorescence at 10 uM after 3 hrs; type: ADME, cell-based; conditions: bv-2, 3 h
[17] = Drug uptake in L-arginine stimulated mouse BV-2 cells assessed as increase in fluorescence at 10 uM pretreated with L-arginine and carboxyl-PTIO for 3 hrs followed by compound addition and measured after 3 hrs; type: ADME, cell-based
[18] = Cytotoxicity against mouse HT-22 cells cocultured with BV-2 cells assessed as cell viability at 5 uM after 48 hrs by CCK8 assay (reference value: 5.19 +/- 1.60%); type: toxicity, cell-based; conditions: read-out: Activity
[19] = Drug uptake in L-arginine stimulated mouse BV-2 cells assessed as increase in fluorescence at 10 uM pretreated with L-arginine and L-NAA for 16 hrs followed by compound addition and measured after 3 hrs; type: ADME, cell-based; conditions: bv-2, 3 h
[20] = Drug uptake in LPS-stimulated mouse BV-2 cells assessed as increase in fluorescence at 10 uM pretreated with LPS and L-NAA for 16 hrs followed by compound addition and measured after 3 hrs; type: ADME, cell-based; conditions: bv-2, 3 h
[21] = Drug uptake in INFgamma-stimulated mouse BV-2 cells assessed as increase in fluorescence at 10 uM pretreated with INFgamma and carboxyl-PTIO for 3 hrs followed by compound addition and measured after 3 hrs; type: ADME, cell-based
[22] = Drug uptake in mouse HT-22 cells cocultured with BV-2 cells assessed as increase in fluorescence at 10 uM after 12 hrs; type: ADME, cell-based; conditions: ht-22, 12 h
[23] = Drug uptake in INFgamma-stimulated mouse BV-2 cells assessed as increase in fluorescence at 10 uM pretreated with INFgamma and L-NAA for 16 hrs followed by compound addition and measured after 3 hrs; type: ADME, cell-based; conditions: bv-2, 3 h
[24] = system: BV-2; experiment: Cytotoxicity against mouse BV-2 cells assessed as reduction in cell viability at 10 uM incubated for 24 hrs by CCK8 assay; type: toxicity, cell-based; conditions: bv-2, 24 h

SMILES | Activity [2] | Activity [4] | Activity [5] | viability at 48 h, 5 µM [7] | Activity [8] | Activity [10] | Activity [11] | Activity [12] | Activity [14] | Drug uptake [15] | Drug uptake [16] | Drug uptake [17] | viability at 48 h, 5 µM [18] | Drug uptake [19] | Drug uptake [20] | Drug uptake [21] | Drug uptake [22] | Drug uptake [23] | further results
CC12CC3CC(C)(C1)CC(NCCOCCOCCOCCOc1ccc(N4c5ccccc5N(c5ccccc5)c5c4c4ccccc4c4ccccc54)cc1)(C3)C2 | Non-Toxic | Non-Toxic | Non-Toxic | 45.9% | 0.32 | Non-Toxic | 103.7 | 732 | – | – | – | – | – | – | – | – | – | – | Activity [1]: Non-Toxic; Activity [3]: Non-Toxic; Activity [6]: Active; Papp at 18 h [9]: 5.73 ×10⁻⁶ cm/s; Activity [13]: Active
CC12CC3CC(C)(C1)CC(NCCOCCOCCOCCO)(C3)C2 | – | – | – | 20.1% | Active | – | – | – | – | – | – | – | – | – | – | – | – | – | –
O=C1C(=O)c2ccccc2-c2ccccc21 [9,10-PHENANTHRENEQUINONE] | – | – | – | – | – | – | – | – | Non-Toxic | Active | Active | Active | 4.46% | Active | Active | Active | Active | Active | –
O=C1C=CC(=O)C=C1 [BENZOQUINONE] | – | – | – | – | – | – | – | – | Non-Toxic | Active | Active | Active | 4.33% | Active | Active | Active | Active | Active | –
CC12CC3CC(C)(C1)CC(N)(C3)C2 [MEMANTINE] | Non-Toxic | Non-Toxic | Non-Toxic | 13.9% | 0.47 | Non-Toxic | 91.9 | 586.7 | – | – | – | – | – | – | – | – | – | – | Activity [24]: > 70%
